One data set relates to S. pyogenes (ATCC 19615). Kind of data set: Agar well diffusion method, antibacterial activity. Type of data set: cell-based. The note with it: Streptococcus pyogenes. Here is the method:
The agar well diffusion method was used for the assessment of the antibacterial activity of M. koenigii leaves against S. pyogenes (ATCC 19615). Six DMSO extracts of M. koenigii leaves from different geographical origins were tested. Antibacterial assay was performed on M17 agar ([…] Abruzzi, Italy). An overnight anaerobic culture of S. pyogenes grown at 37°C, was diluted in order to obtain a suspension containing approximately 1×10^8 CFU/ml. Each agar plate was spread with the microbial suspension. Using a sterile agar gel puncher, equidistant wells were created and filled with 0.1 ml of each sample. The plates were allowed to stand for 30 minutes to allow pre-diffusion of the tested samples, and thereafter incubated at 37°C for 24 h under anaerobic conditions. After incubation, the diameter of any zone of inhibition surrounding each well was measured. Each experiment was performed in triplicates and the means were calculated. […] Louis, USA). Each standard was weighed separately, solubilized in methanol and diluted in DMSO. […] Antibacterial assay was performed on M17 agar ([…] Abruzzi, 25 Italy). An overnight anaerobic culture of S. pyogenes, grown at 37°C, was diluted approximately to obtain 1×10^8 CFU/ml and spread on M17 agar. Using a sterile agar gel puncher, equidistant wells were created and filled with 0.1 ml of each extraction solvent. The plate was allowed to stand for 30 minutes to allow pre-diffusion of the tested samples, and thereafter incubated at 37°C. The zone of inhibition around each well was measured in mm.
Background: In agar diffusion tests the substance spreads into inoculated agar from a disc or well.

For a further data set, the system named is S. pyogenes. Put plainly: TTC assay (broth microdilution) for MIC and MBC determination. Type of data set: cell-based, Streptococcus pyogenes. The note with it: for inhibition at 250 µg/mL (stock) / OD 480 nm (24 h) / OD 600 nm (24 h) / log10 (CFU/ml): duplicate wells. Here is the method: Louis, MO) as colorimetric indicator. In the presence of living bacteria, the colourless TTC is reduced to red formazan. […] Two different stock solutions of M. koenigii leaves were prepared in DMSO at concentrations of 100 mg/ml (1:10) and 20 mg/ml (1:50). Two-fold dilution method was performed in order to obtain a concentration range of 0.04 mg/ml to 10 mg/ml for the 20 mg/ml stock solution and of 0.2 mg/ml to 50 mg/ml for the 100 mg/ml stock solution. An overnight anaerobic culture of S. pyogenes grown at 37°C was adjusted to a final concentration of 1x10^7 CFU/ml in M17 broth ([…] Abruzzi, Italy) and added to the microplate wells containing different concentrations of the extract, in order to obtain a final inoculum of approximately 1x10^6 CFU/well. The microplate was incubated at 37°C under anaerobic conditions for 24 h. […] To discriminate between bactericidal/bacteriostatic activity of the extract, 100 μl aliquots from each tested dilution were used to calculate the number of viable cells (CFU/ml) by plate count method and 10 μl aliquots from the same wells were streaked on M17 agar plates (Figure 3). […] TTC assay is depicted in Figure 4, where a picture of the microplate used for the TTC assay is reported. […] Table 2: Antibacterial activity of DMSO extract of M. koenigii leaves against S. pyogenes. All results are the mean of triplicates wells. […] Medium M17 (blank), positive control (S. pyogenes without M. koenigii), Ext. (Extract). A stock solution of amoxicillin (Sigma-Aldrich, St. Louis, USA) was prepared at a concentration of 0.25 mg/ml in DMSO. The antibacterial properties against S. pyogenes of the plant extract alone, amoxicillin alone and their combination were evaluated by TTC assay as mentioned above. For the experiment, the 20 mg/ml stock solution of M. koenigii leaves was used and a solution containing 0.25 mg/ml amoxicillin and 20 mg/ml extract was prepared.
In general terms: Broth dilution looks for growth in wells or tubes with falling amounts of substance.

Data set [1] is described as follows: Release of carbazole alkaloids from the chewing gum of Example 5 during chewing (HPLC/DAD of chewed bolus). Type of data set: in vivo, healthy adult volunteers. To be noted: average of three chewers. Here is the method:
The chromatographic separation was performed by an HPLC/DAD system series 1200 from Agilent (Agilent Technologies, Santa […], California, USA); the analytical column was a Kinetex C18 5um, 100A (150 mm x 3.00 mm i.d.) from Phenomenex (Phenomenex SRL, Bologna; Italy) equipped with a security guard column. […] The elution of the analytes was carried out with a gradient method: initial condition was 40% of ACN, then brought to 90% in 10 minutes and kept for 8 minutes. […] An aliquot of each solution was withdrawn in order to prepare a mix standard solution and a calibration curve from 0.5 ppm to 4.0 ppm in MeOH was created for the quantification of samples. […] Each chewed bolus of the resulting 4 chewing tests, was frozen overnight and then weighed, ground and added with MeOH. The supernatant was filtered and analysed by HPLC/DAD. In Table 4 below, the release results are reported, being focused on the main actives of M. koenigii. Table 4: […]

Where [2] appears, read: Table 3, dilution 1:2 of stock (amoxicillin 0.25 mg/ml; mix 0.25 mg/ml amoxicillin and 20 mg/ml extract).
Setting [3] is: Table 3, dilution 1:4 of stock (amoxicillin 0.25 mg/ml; mix 0.25 mg/ml amoxicillin and 20 mg/ml extract).
Setting [4] is: Table 3, dilution 1:8 of stock (amoxicillin 0.25 mg/ml; mix 0.25 mg/ml amoxicillin and 20 mg/ml extract).
[5] abbreviates: Table 3, dilution 1:16 of stock (amoxicillin 0.25 mg/ml; mix 0.25 mg/ml amoxicillin and 20 mg/ml extract).
Where [6] appears, read: Table 3, dilution 1:32 of stock (amoxicillin 0.25 mg/ml; mix 0.25 mg/ml amoxicillin and 20 mg/ml extract).
Setting [7] is: Table 3, dilution 1:64 of stock (amoxicillin 0.25 mg/ml; mix 0.25 mg/ml amoxicillin and 20 mg/ml extract).
The mark [8] stands for this setting: Table 3, dilution 1:128 of stock (amoxicillin 0.25 mg/ml; mix 0.25 mg/ml amoxicillin and 20 mg/ml extract).

From patent EP4647073A1, “MURRAYA KOENIGII IN THE TREATMENT OF UPPER RESPIRATORY TRACT INFECTIONS” (Nutraceutical Technology Pharma Biotech S.r.l., priority 2024, dated 2025) come the findings set out here.

The inhibition is the share of the control response that was lost under treatment. What is called MIC is the lowest concentration found to suppress growth. The MBC is the lowest tested concentration that kills the bacteria rather than only halting them.

Turning to `COc1cc2[nH]c3c4c(c(C)cc3c2cc1OC)OC(C)(C)C=C4` [Koenigicine], in the data set on S. pyogenes (ATCC 19615) (ATCC19615, standard at 3 µg/ml, 0.1 ml per well, M17 agar, 37°C), the zone of inhibition at 3 µg/mL is approximately 20 mm.
Turning to `CC1(C)S[C@@H]2[C@H](NC(=O)[C@H](N)c3ccc(O)cc3)C(=O)N2[C@H]1C(=O)O` [Amoxicillin, amoxicillin], the inhibition at 250 µg/mL (stock) in the data set with S. pyogenes (Streptococcus pyogenes, Table 3, dilution 1:2 of stock (amoxicillin 0.25 mg/ml; mix 0.25 mg/ml amoxicillin and 20 mg/ml extract)) worked out at 100%; in the data set with S. pyogenes (Streptococcus pyogenes, Table 3, dilution 1:4 of stock (amoxicillin 0.25 mg/ml; mix 0.25 mg/ml amoxicillin and 20 mg/ml extract)), 100%; in the data set on S. pyogenes (Streptococcus pyogenes, Table 3, dilution 1:8 of stock (amoxicillin 0.25 mg/ml; mix 0.25 mg/ml amoxicillin and 20 mg/ml extract)), 100%; in the data set with S. pyogenes (Streptococcus pyogenes, Table 3, dilution 1:16 of stock (amoxicillin 0.25 mg/ml; mix 0.25 mg/ml amoxicillin and 20 mg/ml extract)) it was 48.6%; in the data set on S. pyogenes (Streptococcus pyogenes, Table 3, dilution 1:32 of stock (amoxicillin 0.25 mg/ml; mix 0.25 mg/ml amoxicillin and 20 mg/ml extract)), 40.6%; in the data set on S. pyogenes (Streptococcus pyogenes, Table 3, dilution 1:64 of stock (amoxicillin 0.25 mg/ml; mix 0.25 mg/ml amoxicillin and 20 mg/ml extract)), 41.5%. The inhibition at 250 µg/mL (stock) with S. pyogenes (Streptococcus pyogenes, Table 3, dilution 1:128 of stock (amoxicillin 0.25 mg/ml; mix 0.25 mg/ml amoxicillin and 20 mg/ml extract)) worked out at 42%. The MIC with S. pyogenes (Streptococcus pyogenes, M17 broth, 37°C, anaerobic, 24 h) is 16 µg/mL. Further, the MBC in the data set with S. pyogenes (Streptococcus pyogenes, M17 broth, 37°C, anaerobic, 24 h, complete inhibition of growth) was found to be 31 µg/mL. Also, the “OD 480 nm (24 h)” value is 0.003 in the data set on S. pyogenes (setting [2]); 0.001 with S. pyogenes (setting [3]); 0.005 in the data set on S. pyogenes (setting [4]); 0.057 in the data set with S. pyogenes (setting [5]); 0.098 with S. pyogenes (setting [6]); 0.120 in the data set on S. pyogenes (setting [7]). In addition, the “OD 480 nm (24 h)” value in the data set with S. pyogenes (setting [8]) is 0.140. For the same compound, the “OD 600 nm (24 h)” value in the data set on S. pyogenes (setting [2]) was 0.002; in the data set on S. pyogenes (setting [3]), 0.011; with S. pyogenes (setting [4]), 0.026; in the data set with S. pyogenes (setting [5]), 0.088; in the data set with S. pyogenes (setting [6]) it was 0.137; in the data set with S. pyogenes (setting [7]), 0.158. In addition, the “OD 600 nm (24 h)” value in the data set with S. pyogenes (setting [8]) was determined as 0.161. The “log10 (CFU/ml)” value is 0.00 log10 (CFU/ml) with S. pyogenes (setting [2]); 0.00 log10 (CFU/ml) with S. pyogenes (setting [3]); 0.00 log10 (CFU/ml) with S. pyogenes (setting [4]); 4.51 log10 (CFU/ml) with S. pyogenes (setting [5]); 5.20 log10 (CFU/ml) with S. pyogenes (setting [6]); 5.12 log10 (CFU/ml) with S. pyogenes (setting [7]). Moreover, the “log10 (CFU/ml)” value in the data set on S. pyogenes (setting [8]) is 5.08 log10 (CFU/ml).
In the data set on S. pyogenes (ATCC 19615) (ATCC19615, standard at 4 µg/ml, 0.1 ml per well, M17 agar, 37°C), `COc1ccc2[nH]c3c4c(c(C)cc3c2c1)OC(C)(C)C=C4` [Koenimbine] yielded a zone of inhibition at 4 µg/mL of approximately 18 mm.
Regarding `CC(C)=CCCC1(C)C=Cc2c(c(C)cc3c2[nH]c2ccccc23)O1` (centres unmarked) [Mahanimbine], the “% release” value in data set [1] (chewing gum of Example 5, chewing time 0.0 min) was found to be 0.0%; in data set [1] (chewing gum of Example 5, chewing time 5.0 min), 54.7%; in data set [1] (chewing gum of Example 5, chewing time 10.0 min), 51.5%; in data set [1] (chewing gum of Example 5, chewing time 15.0 min) it was 59.7%; in data set [1] (chewing gum of Example 5, chewing time 20.0 min), 54.7%. In the data set on S. pyogenes (ATCC 19615) (ATCC19615, read-out: inhibition zone), the zone of inhibition at 6 µg/mL is approximately 20 mm.
